Test results taken from publication PMC10710035 (Breast cancer research and treatment, 2023).
Read-outs that look alike come from different tables or passages of the source.

Columns and labels:
[1] = system: metastatic TNBC; details: cited from earlier work
[2] = system: patients with advanced solid tumors
[3] = system: patients with advanced solid tumors; assay type: in vivo
[4] = system: BRCA mutated TNBC; details: addition of 120 mg BID to carboplatin plus paclitaxel; BROCADE 2; cited from earlier work
[5] = Plasma pharmacokinetics, cycle 1 day 3; assay type: in vivo, human
[6] = system: patients; details: cited from earlier work
[7] = system: patients; details: olaparib with carboplatin; cited from earlier work
[8] = system: early-stage TNBC; details: weekly paclitaxel alone, then AC; 95% PI, 9-43%; cited from earlier work
[9] = cisplatin without veliparib, BRCA-like phenotype
[10] = Expansion (n = 12), veliparib 150 mg bid continuous
[11] = Level 1 (n = 3), veliparib 50 mg bid
[12] = Level 2 (n = 3), veliparib 100 mg bid
[13] = Level 3 (n = 7), veliparib 150 mg bid
[14] = Level 4 (n = 5), veliparib 200 mg bid

## N.N.[Cl][Pt][Cl] [cisplatin]
[1]; [9]
  PFS at 1 year: 7%
  median PFS: 4.3 months
[1]; in vivo
  rate of grade 3/4 neutropenia: 19%

## C[C@]1(c2nc3c(C(N)=O)cccc3[nH]2)CCCN1 [veliparib]
[2]; in vivo
  DLT: without DLT
  patients who experienced a DLT: none
[2]; with weekly carboplatin and paclitaxel, enrollment to DL4 terminated
  MTD: not formally reached
[3]; 4 patients of 30, all dose levels and cycles
  thrombocytopenia grade 3/4: 13%
[3]; 7 patients of 30, all dose levels and cycles
  anemia grade 3/4: 23%
[3]; 18 patients of 30, all dose levels and cycles
  neutropenia grade 3/4: 60%
[3]; 50-200 mg bid
  relationship between veliparib dose level and incidence or severity of adverse events: no clear relationship
[3]; All Patients (N = 30)
  ALT increased, any grade: 4 (13%)
  AST increased, any grade: 3 (10%)
  Anemia, any grade: 20 (67%)
  Anemia, grade ≥ 3: 7 (23%)
  Anorexia, any grade: 3 (10%)
  Any Grade ≥ 3 AE: 24 (80%)
  Any grade AE: 28 (93%)
  Bruising, any grade: 2 (7%)
  Dehydration, grade ≥ 3: 1 (3%)
  Diarrhea, any grade: 5 (17%)
  Dysgeusia, any grade: 2 (7%)
  Fatigue, any grade: 18 (60%)
  Fatigue, grade ≥ 3: 1 (3%)
  Febrile neutropenia, grade ≥ 3: 1 (3%)
  Headache, any grade: 3 (10%)
  Hot flashes, any grade: 4 (13%)
  Hyperglycemia, any grade: 2 (7%)
  Hypocalcemia, any grade: 3 (10%)
  Hyponatremia, any grade: 2 (7%)
  Hypophosphatemia, any grade: 4 (13%)
  Hypophosphatemia, grade ≥ 3: 1 (3%)
  Lymphocyte count decreased, any grade: 11 (37%)
  Lymphocyte count decreased, grade ≥ 3: 7 (23%)
  Myalgia, any grade: 3 (10%)
  Nausea, any grade: 16 (53%)
  Nausea, grade ≥ 3: 2 (7%)
  Neutrophil count decreased, any grade: 24 (80%)
  Neutrophil count decreased, grade ≥ 3: 18 (60%)
  Peripheral sensory neuropathy, any grade: 3 (10%)
  Platelet count decreased, any grade: 22 (73%)
  Platelet count decreased, grade ≥ 3: 4 (13%)
  Rash maculo-papular, any grade: 2 (7%)
  Vomiting, any grade: 4 (13%)
  Vomiting, grade ≥ 3: 1 (3%)
  White blood cell decreased, any grade: 22 (73%)
  White blood cell decreased, grade ≥ 3: 15 (50%)
[3]; [10]
  ALT increased, any grade: 3 (25%)
  AST increased, any grade: 2 (17%)
  Anemia, any grade: 9 (75%)
  Anemia, grade ≥ 3: 3 (25%)
  Anorexia, any grade: 2 (17%)
  Any Grade ≥ 3 AE: 11 (92%)
  Any grade AE: 12 (100%)
  Bruising, any grade: 1 (8%)
  Dehydration, grade ≥ 3: 1 (8%)
  Diarrhea, any grade: 3 (25%)
  Fatigue, any grade: 8 (67%)
  Febrile neutropenia, grade ≥ 3: 1 (8%)
  Headache, any grade: 2 (17%)
  Hot flashes, any grade: 2 (17%)
  Hypocalcemia, any grade: 1 (8%)
  Hypophosphatemia, any grade: 3 (25%)
  Hypophosphatemia, grade ≥ 3: 1 (8%)
  Lymphocyte count decreased, any grade: 7 (58%)
  Lymphocyte count decreased, grade ≥ 3: 3 (25%)
  Myalgia, any grade: 2 (17%)
  Nausea, any grade: 10 (83%)
  Nausea, grade ≥ 3: 1 (8%)
  Neutrophil count decreased, any grade: 10 (83%)
  Neutrophil count decreased, grade ≥ 3: 6 (50%)
  Peripheral sensory neuropathy, any grade: 2 (17%)
  Platelet count decreased, any grade: 10 (83%)
  Platelet count decreased, grade ≥ 3: 2 (17%)
  Vomiting, any grade: 3 (25%)
  White blood cell decreased, any grade: 10 (83%)
  White blood cell decreased, grade ≥ 3: 7 (58%)
[3]; [11]
  Any Grade ≥ 3 AE: 2 (67%)
  Any grade AE: 2 (67%)
  Neutrophil count decreased, any grade: 2 (67%)
  Neutrophil count decreased, grade ≥ 3: 2 (67%)
  Platelet count decreased, any grade: 1 (33%)
[3]; [12]
  Anemia, any grade: 3 (100%)
  Any Grade ≥ 3 AE: 2 (67%)
  Any grade AE: 3 (100%)
  Bruising, any grade: 1 (33%)
  Diarrhea, any grade: 2 (67%)
  Dysgeusia, any grade: 1 (33%)
  Fatigue, any grade: 3 (100%)
  Hot flashes, any grade: 1 (33%)
  Hyperglycemia, any grade: 1 (33%)
  Hypocalcemia, any grade: 1 (33%)
  Hyponatremia, any grade: 1 (33%)
  Myalgia, any grade: 1 (33%)
  Nausea, any grade: 3 (100%)
  Neutrophil count decreased, any grade: 3 (100%)
  Neutrophil count decreased, grade ≥ 3: 2 (67%)
  Platelet count decreased, any grade: 3 (100%)
  Rash maculo-papular, any grade: 1 (33%)
  White blood cell decreased, any grade: 3 (100%)
  White blood cell decreased, grade ≥ 3: 1 (33%)
[3]; [13]
  ALT increased, any grade: 1 (14%)
  AST increased, any grade: 1 (14%)
  Anemia, any grade: 4 (57%)
  Anemia, grade ≥ 3: 2 (29%)
  Anorexia, any grade: 1 (14%)
  Any Grade ≥ 3 AE: 4 (57%)
  Any grade AE: 6 (86%)
  Dysgeusia, any grade: 1 (14%)
  Fatigue, any grade: 3 (43%)
  Headache, any grade: 1 (14%)
  Hot flashes, any grade: 1 (14%)
  Hyperglycemia, any grade: 1 (14%)
  Hypocalcemia, any grade: 1 (14%)
  Hyponatremia, any grade: 1 (14%)
  Hypophosphatemia, any grade: 1 (14%)
  Lymphocyte count decreased, any grade: 2 (29%)
  Lymphocyte count decreased, grade ≥ 3: 2 (29%)
  Nausea, any grade: 2 (29%)
  Neutrophil count decreased, any grade: 4 (57%)
  Neutrophil count decreased, grade ≥ 3: 3 (43%)
  Peripheral sensory neuropathy, any grade: 1 (14%)
  Platelet count decreased, any grade: 4 (57%)
  Platelet count decreased, grade ≥ 3: 2 (29%)
  Rash maculo-papular, any grade: 1 (14%)
  White blood cell decreased, any grade: 4 (57%)
  White blood cell decreased, grade ≥ 3: 2 (29%)
[3]; [14]
  Anemia, any grade: 4 (80%)
  Anemia, grade ≥ 3: 2 (40%)
  Any Grade ≥ 3 AE: 5 (100%)
  Any grade AE: 5 (100%)
  Fatigue, any grade: 4 (80%)
  Fatigue, grade ≥ 3: 1 (20%)
  Lymphocyte count decreased, any grade: 2 (40%)
  Lymphocyte count decreased, grade ≥ 3: 2 (40%)
  Nausea, any grade: 1 (20%)
  Nausea, grade ≥ 3: 1 (20%)
  Neutrophil count decreased, any grade: 5 (100%)
  Neutrophil count decreased, grade ≥ 3: 5 (100%)
  Platelet count decreased, any grade: 4 (80%)
  Vomiting, any grade: 1 (20%)
  Vomiting, grade ≥ 3: 1 (20%)
  White blood cell decreased, any grade: 5 (100%)
  White blood cell decreased, grade ≥ 3: 5 (100%)
[3]; of the total 30 patients enrolled
  came off study due to toxicity: 10 patients
[1]; veliparib with cisplatin, BRCA-like phenotype
  PFS at 1 year: 20%
[1]; veliparib with cisplatin
  rate of grade 3/4 neutropenia: 46%
[4]
  ORR: improved ORR
  PFS benefit: did not translate into a PFS benefit
[5]; human, in vivo
  clearance: 387 mL/min
  half-life: 4.8 h
[5]; in vivo
  AUC0-12 and Cmax versus dose: increase linearly with dose

## Cn1ncnc1[C@H]1c2n[nH]c(=O)c3cc(F)cc(c23)N[C@@H]1c1ccc(F)cc1 [Talazoparib, talazoparib]
[6]; single agent
  single agent MTD: 1000 µg
[6]; talazoparib with carboplatin AUC5-6 and paclitaxel 80 mg/m^2 days 1, 8, 15 of 21-day cycles
  patients with dose modification: 87-100%

## N.N.O=C([O-])C1(C(=O)[O-])CCC1.[Pt+2] [Carboplatin, carboplatin]
[5]; ultrafilterable carboplatin, 20 evaluable patients
  Cmax and AUC0-∞, impact of veliparib dose: not impacted

## O=C(c1cc(Cc2n[nH]c(=O)c3ccccc23)ccc1F)N1CCN(C(=O)C2CC2)CC1 [olaparib]
[7]
  tolerability with carboplatin: not tolerable

## CC(=O)O[C@H]1C(=O)[C@@]2(C)[C@H]([C@H](OC(=O)c3ccccc3)[C@]3(O)C[C@H](OC(=O)[C@H](O)[C@@H](NC(=O)c4ccccc4)c4ccccc4)C(C)=C1C3(C)C)[C@]1(OC(C)=O)CO[C@@H]1C[C@@H]2O [Paclitaxel, paclitaxel]
[8]
  complete pathological response (cPR) rate: 26%
[5]; human, in vivo
  exposure (Cmax and AUC0-∞) across veliparib doses: not altered
